Test [1] concerns the target T1, CB2 receptors (Mus musculus, UniProt P47936). Description: NIR-mbc94 binding competition in intact BV-2 cells. Particulars: read-out: Ki (competition for NIR-mbc94 binding).
In test [2] the target is T1, CB2 receptors. Type of test: binding. Particulars: saturation, homogenates of CB2-mid DBT cells.
Test [3] deals with CB2 receptor mRNA. Briefly: qPCR of CB2 receptor mRNA in primary microglia. In kind it is cell-based, mouse. Conditions: 72 hr.
The test system of test [4] is CB2 receptors. Conditions: ref Rinaldi-Carmona et al., 1998; cited from earlier work.

T1 sequence (P47936 whole entry): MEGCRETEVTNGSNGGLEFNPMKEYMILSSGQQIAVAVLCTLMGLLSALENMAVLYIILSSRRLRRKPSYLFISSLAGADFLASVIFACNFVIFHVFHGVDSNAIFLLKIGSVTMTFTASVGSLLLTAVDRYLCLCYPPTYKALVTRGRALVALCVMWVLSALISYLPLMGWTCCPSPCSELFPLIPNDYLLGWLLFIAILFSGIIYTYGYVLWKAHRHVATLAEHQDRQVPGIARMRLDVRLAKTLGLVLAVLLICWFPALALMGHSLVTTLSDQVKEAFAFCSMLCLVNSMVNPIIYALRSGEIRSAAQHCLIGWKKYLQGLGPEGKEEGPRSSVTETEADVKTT

Consider `Cc1c(C(=O)c2cccc3ccccc23)c2cccc3c2n1[C@H](CN1CCOCC1)CO3` [WIN55212-2], for which the Ki – broadly, the equilibrium dissociation constant of an inhibitor or competing ligand from its target – in test [1] came to 3 nM.
`CCCCCCC(C)(C)c1ccc([C@@H]2C[C@H](O)CC[C@H]2CCCO)c(O)c1` [[^3H]-CP-55,940]: the Kd (as a rule, the equilibrium constant for the complex coming apart) in test [2] (read-out: Kd of [3H]-CP-55,940) was 3.1 nM. Further, the “Bmax of [3H]-CP-55,940” value in test [2] is 6 pmol/mg.
“IL-4: cytokine that promotes alternative activation phenotype in macrophages/microglia”: the “increase of CB2 receptor mRNA” value in test [3] is ~ 5 fold.
As for SR144528, the “affinity at CB2 receptors” value in test [4] was “nanomolar affinity”.
For TGFβ, the “effect on CB2 receptor expression (mRNA)” value in test [3] was “did not affect”.

Values taken from paper PMC3420821 (Chemistry & biology, 2011).
